From patent US20240116922A1, “IMIDAZO[1,2-A]PYRIDINE DERIVATIVES AS IRAK4 INHIBITORS AND THEIR USE IN THE TREATMENT OF DISEASE” (BIOGEN MA INC., priority 2020, published 2024) come the findings set out here.

≈ marks a conversion by molar mass, not a printed value. Counter-ions that a name gives are not always drawn.

Data set [1] concerns the target IRAK4 (Homo sapiens (Human), UniProt Q9NWZ3). The data set can be described thus: IRAK4 MSD biochemical assay (2-hour 1 mM ATP). As to conditions: 0.1 nM IRAK4, 1 mM ATP, 2 hour at room temperature.
Procedure: The 2-hour 1 mM ATP Biochemical Assay employed a MesoScale Detection (MSD) format.
The activity was quenched with 11 μl of 70 mM EDTA, pH 8.
To detect the phosphorylated biotinylated peptide substrate, 30 μl of the quenched reaction mixture was added to equivalent wells of a 384 well streptavidin coated MesoScale plate (Meso Scale Discovery #L21SA-1). After a 1 hour incubation of the plate for 1 hour at room temperature with gentle mixing, the plate wells were washed 3 times with 50 mM Tris, pH 7.5, 150 mM NaCl, 0.02% Tween-20.
A 25 μl volume of 1:500 anti-P-Threonine Rabbit polyclonal Antibody plus 1:500 Goat-anti-Rabbit Sulfo Tag Antibody (Meso Scale Discovery R32AB-1) in 50 mM Tris, pH 7.5, 150 mM NaCl, 0.02% Tween-20 plus 2% BSA was then added to each well. After a 1-hour incubation of the plate for 1 hour at room temperature with gentle mixing, the plate wells were washed, 3 times with 50 mM Tris, pH 7.5, 150 mM NaCl, 0.02% Tween-20.
In data set [2] the target is MDR1 (Homo sapiens (Human), UniProt P08183). Put plainly: in vitro. As to conditions: MDCK-MDR1.
Sequence of MDR1 (P08183 whole entry): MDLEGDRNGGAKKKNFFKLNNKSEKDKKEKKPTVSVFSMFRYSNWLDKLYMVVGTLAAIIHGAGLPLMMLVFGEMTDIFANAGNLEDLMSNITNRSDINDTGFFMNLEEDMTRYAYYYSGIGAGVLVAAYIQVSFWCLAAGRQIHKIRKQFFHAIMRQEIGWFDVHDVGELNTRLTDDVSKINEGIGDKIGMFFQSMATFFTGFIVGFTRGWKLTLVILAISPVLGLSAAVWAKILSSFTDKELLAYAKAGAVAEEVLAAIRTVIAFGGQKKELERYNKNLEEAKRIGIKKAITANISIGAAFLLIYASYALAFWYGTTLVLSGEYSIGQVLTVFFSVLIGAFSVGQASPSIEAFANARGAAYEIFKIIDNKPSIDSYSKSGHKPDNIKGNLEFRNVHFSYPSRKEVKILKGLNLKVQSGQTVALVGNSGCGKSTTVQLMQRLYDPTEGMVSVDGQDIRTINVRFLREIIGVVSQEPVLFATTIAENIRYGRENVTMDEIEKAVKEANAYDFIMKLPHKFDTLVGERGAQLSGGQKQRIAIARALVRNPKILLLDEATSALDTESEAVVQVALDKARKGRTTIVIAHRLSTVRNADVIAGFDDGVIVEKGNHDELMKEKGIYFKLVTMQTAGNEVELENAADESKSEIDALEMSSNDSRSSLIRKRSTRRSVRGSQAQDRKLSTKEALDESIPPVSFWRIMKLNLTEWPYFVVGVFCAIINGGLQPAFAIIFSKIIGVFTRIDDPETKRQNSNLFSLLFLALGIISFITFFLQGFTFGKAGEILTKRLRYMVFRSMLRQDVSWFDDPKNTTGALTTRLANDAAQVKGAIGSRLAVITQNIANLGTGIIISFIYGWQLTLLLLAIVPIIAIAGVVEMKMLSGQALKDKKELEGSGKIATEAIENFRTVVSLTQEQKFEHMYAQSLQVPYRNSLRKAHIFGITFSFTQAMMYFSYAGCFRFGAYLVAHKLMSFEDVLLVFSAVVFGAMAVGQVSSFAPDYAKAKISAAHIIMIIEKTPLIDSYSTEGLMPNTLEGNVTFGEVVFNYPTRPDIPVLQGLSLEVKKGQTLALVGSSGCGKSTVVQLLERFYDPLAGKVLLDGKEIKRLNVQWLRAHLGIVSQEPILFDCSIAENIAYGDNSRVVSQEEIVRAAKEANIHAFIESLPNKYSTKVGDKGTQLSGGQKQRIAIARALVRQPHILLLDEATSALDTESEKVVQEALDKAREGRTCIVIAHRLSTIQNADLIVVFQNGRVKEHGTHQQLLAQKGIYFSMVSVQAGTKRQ
The nature of data set [3]: Kinetic solubility assay (CLND), pH 6.8. It counts as physicochemical. The note with it: aqueous buffer, kinetic from dmso stock; potassium phosphate buffer pH 6.8, 2% DMSO, 24 hours at ambient temperature.

Sequence of IRAK4 (Q9NWZ3 whole entry): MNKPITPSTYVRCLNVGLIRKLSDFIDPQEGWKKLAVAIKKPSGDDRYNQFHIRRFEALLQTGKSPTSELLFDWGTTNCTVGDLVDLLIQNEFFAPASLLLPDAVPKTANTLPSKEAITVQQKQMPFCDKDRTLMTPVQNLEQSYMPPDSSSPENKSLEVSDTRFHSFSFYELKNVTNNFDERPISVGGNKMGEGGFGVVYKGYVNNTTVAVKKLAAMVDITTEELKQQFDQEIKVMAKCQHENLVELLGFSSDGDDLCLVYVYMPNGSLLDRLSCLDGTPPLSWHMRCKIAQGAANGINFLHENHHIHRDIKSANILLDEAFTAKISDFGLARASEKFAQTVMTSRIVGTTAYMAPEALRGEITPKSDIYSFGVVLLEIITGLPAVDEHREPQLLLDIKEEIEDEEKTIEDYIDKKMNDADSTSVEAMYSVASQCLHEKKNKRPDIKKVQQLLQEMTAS

Regarding `C[C@H](CF)Oc1cc2nc(C34COC(C)(C3)C4)cn2cc1C(=O)Nc1cccn(C2CC2)c1=O` [Example 29, (R)—N-(1-cyclopropyl-2-oxo-1,2-dihydropyridin-3-yl)-7-((1-fluoropropan-2-yl)oxy)-2-(1-methyl-2-oxabicyclo[2.1.1]hexan-4-yl)imidazo[1,2-a]pyridine-6-carboxamide], the half-inhibitory concentration (IC50) (commonly the point on the concentration scale where inhibition reaches its midpoint) in data set [1] was determined as 0.6 nM. The efflux ratio (usually a quotient of directional permeabilities that is used to spot active efflux) at 120 min, 1 μM in data set [2] was determined as 13.6. Also, in data set [3], the solubility (kinetic) (commonly the concentration staying in solution when a stock, usually in DMSO, is diluted into the medium) at 24 h was found to be 60.2 µg/mL (≈ 129 µM).
Regarding `CC(C)Oc1c(C(=O)Nc2cccn(C3CC3)c2=O)cn2cc([C@]34CC[C@](C)(C3)OC4)nc2c1F` (single isomer, unassigned) [Example 68], the IC50 in data set [1] amounted to 4.3 nM. Also, the efflux ratio at 120 min, 1 μM in data set [2] came to 2.2. The solubility (kinetic) at 24 h in data set [3] was 53.6 µg/mL (≈ 112 µM).
`CC(C)Oc1c(C(=O)Nc2cccn([C@H]3C[C@H]3F)c2=O)cn2cc([C@]34CC[C@](C)(C3)OC4)nc2c1F` (single isomer, unassigned) [Example 127]: in data set [1], the concentration for half-maximal inhibition (IC50) came to 0.7 nM. Moreover, in data set [2], the efflux ratio at 120 min, 1 μM is 3.4. This compound also yielded a kinetic solubility at 24 h in data set [3] of 32.6 µg/mL (≈ 65.4 µM).
For `CC12CC(c3cn4cc(C(=O)Nc5cccn([C@@H]6C[C@@H]6F)c5=O)c(OC5CCC5)nc4n3)(CO1)C2` (single isomer, unassigned) [Example 113] the same measures were 12.6 nM, 8.7 and 59.5 µg/mL (≈ 124 µM).
Compound `CC[C@@H](C)Oc1nc2nc([C@@]34CC[C@@](C)(C3)OC4)cn2cc1C(=O)Nc1cccn(C2CC2)c1=O` [Example 48, 7-((R)-sec-butoxy)-N-(1-cyclopropyl-2-oxo-1,2-dihydropyridin-3-yl)-2-((1S,4R)-1-methyl-2-oxabicyclo[2.2.1]heptan-4-yl)imidazo[1,2-a]pyrimidine-6-carboxamide] had a concentration for half-maximal inhibition (IC50) in data set [1] of 0.8 nM. Besides, the efflux ratio at 120 min, 1 μM in data set [2] was determined as 3.2. In addition, the solubility (kinetic) at 24 h in data set [3] was determined as 63.2 µg/mL (≈ 132 µM).
For `COC12CC(c3cn4cc(C(=O)Nc5cccn(C6CC6)c5=O)c(OC(C)C)cc4n3)(C1)C2` [Example 62, N-(1-cyclopropyl-2-oxo-1,2-dihydropyridin-3-yl)-7-isopropoxy-2-(3-methoxybicyclo[1.1.1]pentan-1-yl)imidazo[1,2-a]pyridine-6-carboxamide] the same measures were 0.4 nM, 3.6 and 58.2 µg/mL (≈ 130 µM).
On the same counts, the results for `CC[C@@H](C)Oc1cc2nc(C34COC(CF)(C3)C4)cn2cc1C(=O)Nc1cccn(C2CC2)c1=O` (single isomer, unassigned) [Example 14] are 1.3 nM, 4.8 and 75.7 µg/mL (≈ 158 µM).
For `CC[C@H](C)Oc1nc2nc(C34COC(C)(C3)C4)cn2cc1C(=O)Nc1cccn([C@H]2C[C@H]2F)c1=O` (single isomer, unassigned) [Example 60] the same measures were 0.2 nM, 9 and 55.5 µg/mL (≈ 115 µM).
For `CC(C)Oc1nc2nc([C@@]34CC[C@@](C)(C3)OC4)cn2cc1C(=O)Nc1ccn(C)n1` (single isomer, unassigned) [Comparator 4C, reference compound], it took 2.5 nM to reach half-maximal inhibition in data set [1] (IC50). Besides, the efflux ratio at 120 min, 1 μM in data set [2] was 4.6. In data set [3], this compound gave a solubility (kinetic) at 24 h of 51.3 µg/mL (≈ 125 µM).
For `CC(C)Oc1cc2nc([C@@]34CC[C@@H](C3)OC4)cn2cc1C(=O)Nc1cccn(C2CC2)c1=O` (single isomer, unassigned) [Example 39] the same measures were 0.2 nM, 6.8 and 68.9 µg/mL (≈ 154 µM).
In data set [1], `CC12CC(c3cn4cc(C(=O)Nc5cccn([C@@H]6C[C@@H]6F)c5=O)c(OC5CCC5)cc4n3)(CO1)C2` (racemic) [Example 85, (rac)-Cis-7-cyclobutoxy-N-(1-(2-fluorocyclopropyl)-2-oxo-1,2-dihydropyridin-3-yl)-2-(1-methyl-2-oxabicyclo[2.1.1]hexan-4-yl)imidazo[1,2-a]pyridine-6-carboxamide] showed a concentration for half-maximal inhibition (IC50) of 0.6 nM. Besides, the efflux ratio at 120 min, 1 μM in data set [2] stood at 7.7. In addition, in data set [3], the kinetic solubility at 24 h was 44.5 µg/mL (≈ 93 µM).
On the same counts, the results for `CCC(C)Oc1cc2nc([C@@]34CC[C@@](C)(C3)OC4)cn2cc1C(=O)Nc1cccn(C2CC2)c1=O` (stereo partly drawn) [Example 20, 7-(sec-butoxy)-N-(1-cyclopropyl-2-oxo-1,2-dihydropyridin-3-yl)-2-((1S,4R)-1-methyl-2-oxabicyclo[2.2.1]heptan-4-yl)imidazo[1,2-a]pyridine-6-carboxamide] are 0.7 nM, 2.8 and 68.1 µg/mL (≈ 143 µM).
On the same counts, the results for `C[C@@H](Oc1cc2nc(C34COC(C)(C3)C4)cn2cc1C(=O)Nc1cccn(C2C[C@H]2F)c1=O)C(F)F` (stereo partly drawn) [Example 185] are 0.1 nM, 21.8 and 73.2 µg/mL (≈ 146 µM).
For `CCC12CC(c3cn4cc(C(=O)Nc5cccn(C6CC6)c5=O)c(OC(C)C)cc4n3)(CO1)C2` [Example 2, N-(1-cyclopropyl-2-oxo-1,2-dihydropyridin-3-yl)-2-(1-ethyl-2-oxabicyclo[2.1.1]hexan-4-yl)-7-isopropoxyimidazo[1,2-a]pyridine-6-carboxamide] the same measures were 0.4 nM, 3.3 and 65.7 µg/mL (≈ 142 µM).
For the compound `CC12CCC(c3cn4cc(C(=O)Nc5cccn(C6CC6)c5=O)c(OC5CCC5)cc4n3)(CC1)CO2` [Example 1, 7-cyclobutoxy-N-(1-cyclopropyl-2-oxo-1,2-dihydropyridin-3-yl)-2-(1-methyl-2-oxabicyclo[2.2.2]octan-4-yl)imidazo[1,2-a]pyridine-6-carboxamide], in data set [1], half-maximal inhibition (IC50) required 0.2 nM. For the same compound, the efflux ratio at 120 min, 1 μM in data set [2] was 1.7. In addition, in data set [3], the kinetic solubility at 24 h amounted to 56 µg/mL (≈ 115 µM).
On the same counts, the results for `O=C(Nc1cccn(C2CC2)c1=O)c1cn2cc(C34COC(C3)C4)nc2cc1OC1CCC1` [Example 37, 2-(2-oxabicyclo[2.1.1]hexan-4-yl)-7-cyclobutoxy-N-(1-cyclopropyl-2-oxo-1,2-dihydropyridin-3-yl)imidazo[1,2-a]pyridine-6-carboxamide] are 3.1 nM, 10.2 and 64.4 µg/mL (≈ 144 µM).
In data set [1], `CC(C)Oc1cc2nc([C@]34CC[C@](C)(C3)OC4)cn2cc1C(=O)Nc1cccn(C2CC2F)c1=O` (mixture of isomers) [Example 100, N-(1-(2-fluorocyclopropyl)-2-oxo-1,2-dihydropyridin-3-yl)-7-isopropoxy-2-((1R,4S)-1-methyl-2-oxabicyclo[2.2.1]heptan-4-yl)imidazo[1,2-a]pyridine-6-carboxamide] gave a half-inhibitory concentration (IC50) of 0.6 nM. Also, in data set [2], the efflux ratio at 120 min, 1 μM was 12.6. Also, the kinetic solubility at 24 h in data set [3] was 27.6 µg/mL.
On the same counts, the results for `COCC12CC(c3cn4cc(C(=O)Nc5cccn([C@H]6C[C@H]6F)c5=O)c(OC5CCC5)nc4n3)(CO1)C2` [Example 128, 7-cyclobutoxy-N-(1-((1S,2R)-2-fluorocyclopropyl)-2-oxo-1,2-dihydropyridin-3-yl)-2-(1-(methoxymethyl)-2-oxabicyclo[2.1.1]hexan-4-yl)imidazo[1,2-a]pyrimidine-6-carboxamide] are 0.3 nM, 20.8 and 72.5 µg/mL (≈ 142 µM).
On the same counts, the results for `CC12CC(c3cn4cc(C(=O)Nc5cccn([C@H]6C[C@H]6F)c5=O)c(OC5CCC5)nc4n3)(CO1)C2` (single isomer, unassigned) [Example 114] are 0.3 nM, 10.4 and 68.6 µg/mL (≈ 143 µM).
`CC(C)Oc1cc2nc([C@@]34CC[C@@](C)(C3)OC4)cn2cc1C(=O)Nc1cccn([C@H]2C[C@@H]2C)c1=O` (single isomer, unassigned) [Example 192]: in data set [1], the IC50 came out at 0.7 nM. Besides, in data set [2], the efflux ratio at 120 min, 1 μM was 1.7. Moreover, the solubility (kinetic) at 24 h in data set [3] was 60.6 µg/mL (≈ 127 µM).
For `CC(C)Oc1cc2nc([C@]34CC[C@](C)(C3)OC4)cn2cc1C(=O)Nc1cccn([C@H]2C[C@H]2F)c1=O` [Example 171, N-(1-((1S,2R)-2-fluorocyclopropyl)-2-oxo-1,2-dihydropyridin-3-yl)-7-isopropoxy-2-((1R,4S)-1-methyl-2-oxabicyclo[2.2.1]heptan-4-yl)imidazo[1,2-a]pyridine-6-carboxamide] the same measures were 0.2 nM, 9.8 and 47.9 µg/mL (≈ 99.7 µM).
Turning to `C[C@@H]1C[C@@H]1n1cccc(NC(=O)c2cn3cc(C45COC(C)(C4)C5)nc3cc2OC2CCC2)c1=O` [Example 190, 7-cyclobutoxy-2-(1-methyl-2-oxabicyclo[2.1.1]hexan-4-yl)-N-(1-((1S,2R)-2-methylcyclopropyl)-2-oxo-1,2-dihydropyridin-3-yl)imidazo[1,2-a]pyridine-6-carboxamide trifluoroacetate], the IC50 in data set [1] came to 0.9 nM. Also, the efflux ratio at 120 min, 1 μM in data set [2] was 4.1. Moreover, the solubility (kinetic) at 24 h in data set [3] worked out at 54.2 µg/mL.
On to `CC(C)Oc1cc2nc([C@]34CC[C@H](C3)OC4)cn2cc1C(=O)Nc1cccn(C2CC2)c1=O` (single isomer, unassigned) [Example 40], for which the midpoint of inhibition in data set [1], the IC50, lay at 0.4 nM. Besides, in data set [2], the efflux ratio at 120 min, 1 μM came to 7.5. The compound also displayed a solubility (kinetic) at 24 h in data set [3] of 70.2 µg/mL (≈ 157 µM).
The compound `CC[C@H](C)Oc1nc2nc(C34CCC(CF)(C3)OC4)cn2cc1C(=O)Nc1cccn(C2CC2)c1=O` (stereo partly drawn) [Example 56, 7-((S)-sec-butoxy)-N-(1-cyclopropyl-2-oxo-1,2-dihydropyridin-3-yl)-2-(1-(fluoromethyl)-2-oxabicyclo[2.2.1]heptan-4-yl)imidazo[1,2-a]pyrimidine-6-carboxamide] returned an IC50 in data set [1] of 0.6 nM. For the same compound, the efflux ratio at 120 min, 1 μM in data set [2] is 4.1. The solubility (kinetic) at 24 h in data set [3] stood at 67.5 µg/mL (≈ 136 µM).
As for `CC(C)Oc1cc2nc([C@@]34CC[C@@](C)(C3)OC4)cn2cc1C(=O)Nc1cccn([C@@H]2C[C@H]2C)c1=O` (single isomer, unassigned) [Example 191], 0.4 nM corresponded to half-maximal inhibition in data set [1] (IC50). Moreover, the efflux ratio at 120 min, 1 μM in data set [2] is 1.5. Further, the kinetic solubility at 24 h in data set [3] amounted to 48.5 µg/mL (≈ 102 µM).
